{"source": "patent US11471442B2", "about": "“Administration of gut-selective JAK3 inhibitor” (THERAVANCE BIOPHARMA R&D IP, LLC, priority 2020, dated 2022)", "test": "Phase 1 single ascending dose (SAD, Part A) safety and tolerability in healthy subjects", "type": "in vivo, human", "settings": "for Most frequent TEAEs: Apthous ulcer / Most frequent TEAEs: Back pain / Most frequent TEAEs: Diarrhea / Most frequent TEAEs: Headache / Most frequent TEAEs: Pain in extremity / Subjects with TEAEs: Any TEAE / Subjects with TEAEs: Moderate or severe TEAE / Subjects with TEAEs: Seriou TEAE / Subjects with TEAEs: TEAE leading to discontinuation / Total number of TEAEs: SAD, n = 6", "excerpt": "This clinical study was the first in human study of a compound of formula (I). The purpose of this study was to assess the safety, tolerability and pharmacokinetics (PK) of the compound of formula (I) through single ascending dose administration (Part A) and multiple dose administrations (Part B) in healthy subjects.\nThe number and severity of treatment emergent adverse events (TEAE5) following single (Part A) or multiple (Parts B) oral doses of the compound of formula (I) and matching placebo, and changes in safety laboratory assessments, vital signs, and ECGs.\n32 healthy, adult male and female subjects were enrolled in Part A. Four cohorts (A1 to A4) of 8 healthy subjects (6 active and 2 placebo) were evaluated.\nIn each cohort, healthy subjects meeting eligibility criteria were sequentially randomized in a 3:1 ratio to receive either the compound of formula (I) or matching placebo. Study drug was administered orally as a single dose on the morning of Day 1 following an overnight fast of at least 9.5 hours. Subjects were dosed in an upright (i.e., seated or standing) position and remained upright for 5 minutes following dosing prior to performing study procedures which require a posture change. Subjects were to remain fasted, except water, until after the 4-hour post-dose assessments were completed and the 4-hour post dose PK sample was collected. PK sampling for the compound of formula (I) in plasma and urine were taken Day 1 pre-dose and for 72 hours post-dose.\nSafety was determined by evaluating physical examinations, vital signs, safety 12-lead electrocardiograms (ECGs) monitoring, clinical laboratory tests, and adverse events (AEs). For procedures scheduled to be performed at common times, collection of PK samples was collected as close as possible to the designated time. The cardiodynamic recordings via ECG extractions from the Holter monitor were conducted as close as possible prior to the corresponding PK sampling. Vital signs, followed by safety ECGs, were be taken before the PK sampling (or before the cardiodynamic sampling if scheduled at the same time), unless PK samples were late as a result in which case vital signs were taken following the PK sampling.\nSafety analyses were performed using the Safety analysis set. Safety variables include vital signs, adverse events, clinical laboratory results (hematology, chemistry, coagulation, and urinalysis), and ECG parameters, such as Friderica's corrected QT interval (QTcF), PR interval, QT interval, QRS interval, and heart rate, from standard safety digital ECGs. Vital signs were summarized in terms of observed values and changes from baseline."}
{"smiles": "CN(C)C/C=C/C(=O)N1CC(COc2cc(-c3ccc(O)cc3)cc3[nH]ncc23)C1", "note": "[compound of formula (I)]", "values": [{"measurement": "serious AEs", "setting": "SAD cohorts", "value": "No serious AEs"}, {"measurement": "severity of reported treatment-emergent AEs", "setting": "SAD cohorts", "value": "mild"}, {"measurement": "AEs considered related to study drug (diarrhea, abdominal discomfort, and vomiting)", "setting": "SAD cohorts, 2000 mg", "value": "Three"}, {"measurement": "changes from predose baseline in laboratory assessments (lipid, coagulation, hematology), vital signs or ECGs", "setting": "SAD cohorts, any time point postdose", "value": "No clinically significant changes"}, {"measurement": "Most frequent TEAEs: Apthous ulcer", "setting": "single oral dose 100 mg", "value": "1 (17)"}, {"measurement": "Most frequent TEAEs: Back pain", "setting": "single oral dose 100 mg", "value": "1 (17)"}, {"measurement": "Most frequent TEAEs: Diarrhea", "setting": "single oral dose 100 mg", "value": 0}, {"measurement": "Most frequent TEAEs: Headache", "setting": "single oral dose 100 mg", "value": "1 (17)"}, {"measurement": "Most frequent TEAEs: Pain in extremity", "setting": "single oral dose 100 mg", "value": "3 (50)"}, {"measurement": "Subjects with TEAEs: Any TEAE", "setting": "single oral dose 100 mg", "value": "4 (67)"}, {"measurement": "Subjects with TEAEs: Moderate or severe TEAE", "setting": "single oral dose 100 mg", "value": 0}, {"measurement": "Subjects with TEAEs: Seriou TEAE", "setting": "single oral dose 100 mg", "value": 0}, {"measurement": "Subjects with TEAEs: TEAE leading to discontinuation", "setting": "single oral dose 100 mg", "value": 0}, {"measurement": "Total number of TEAEs", "setting": "single oral dose 100 mg", "value": 8}, {"measurement": "Most frequent TEAEs: Apthous ulcer", "setting": "single oral dose 300 mg", "value": 0}, {"measurement": "Most frequent TEAEs: Back pain", "setting": "single oral dose 300 mg", "value": 0}, {"measurement": "Most frequent TEAEs: Diarrhea", "setting": "single oral dose 300 mg", "value": 0}, {"measurement": "Most frequent TEAEs: Headache", "setting": "single oral dose 300 mg", "value": 0}, {"measurement": "Most frequent TEAEs: Pain in extremity", "setting": "single oral dose 300 mg", "value": "1 (17)"}, {"measurement": "Subjects with TEAEs: Any TEAE", "setting": "single oral dose 300 mg", "value": "2 (33)"}, {"measurement": "Subjects with TEAEs: Moderate or severe TEAE", "setting": "single oral dose 300 mg", "value": 0}, {"measurement": "Subjects with TEAEs: Seriou TEAE", "setting": "single oral dose 300 mg", "value": 0}, {"measurement": "Subjects with TEAEs: TEAE leading to discontinuation", "setting": "single oral dose 300 mg", "value": 0}, {"measurement": "Total number of TEAEs", "setting": "single oral dose 300 mg", "value": 2}, {"measurement": "Most frequent TEAEs: Apthous ulcer", "setting": "single oral dose 1000 mg", "value": 0}, {"measurement": "Most frequent TEAEs: Back pain", "setting": "single oral dose 1000 mg", "value": "1 (17)"}, {"measurement": "Most frequent TEAEs: Diarrhea", "setting": "single oral dose 1000 mg", "value": "1 (17)"}, {"measurement": "Most frequent TEAEs: Headache", "setting": "single oral dose 1000 mg", "value": 0}, {"measurement": "Most frequent TEAEs: Pain in extremity", "setting": "single oral dose 1000 mg", "value": 0}, {"measurement": "Subjects with TEAEs: Any TEAE", "setting": "single oral dose 1000 mg", "value": "2 (33)"}, {"measurement": "Subjects with TEAEs: Moderate or severe TEAE", "setting": "single oral dose 1000 mg", "value": 0}, {"measurement": "Subjects with TEAEs: Seriou TEAE", "setting": "single oral dose 1000 mg", "value": 0}, {"measurement": "Subjects with TEAEs: TEAE leading to discontinuation", "setting": "single oral dose 1000 mg", "value": 0}, {"measurement": "Total number of TEAEs", "setting": "single oral dose 1000 mg", "value": 6}, {"measurement": "Most frequent TEAEs: Apthous ulcer", "setting": "single oral dose 2000 mg", "value": "1 (17)"}, {"measurement": "Most frequent TEAEs: Back pain", "setting": "single oral dose 2000 mg", "value": 0}, {"measurement": "Most frequent TEAEs: Diarrhea", "setting": "single oral dose 2000 mg", "value": "1 (17)"}, {"measurement": "Most frequent TEAEs: Headache", "setting": "single oral dose 2000 mg", "value": "1 (17)"}, {"measurement": "Most frequent TEAEs: Pain in extremity", "setting": "single oral dose 2000 mg", "value": 0}, {"measurement": "Subjects with TEAEs: Any TEAE", "setting": "single oral dose 2000 mg", "value": "3 (50)"}, {"measurement": "Subjects with TEAEs: Moderate or severe TEAE", "setting": "single oral dose 2000 mg", "value": 0}, {"measurement": "Subjects with TEAEs: Seriou TEAE", "setting": "single oral dose 2000 mg", "value": 0}, {"measurement": "Subjects with TEAEs: TEAE leading to discontinuation", "setting": "single oral dose 2000 mg", "value": 0}, {"measurement": "Total number of TEAEs", "setting": "single oral dose 2000 mg", "value": 6}, {"measurement": "tolerability", "setting": "single dose up to 2000 mg", "value": "generally well-tolerated"}]}
